Laboratory results taken from patent US20200187502A1, “MICROBIOCIDAL OXADIAZOLE DERIVATIVES” (SYNGENTA PARTICIPATIONS AG, priority 2017, published 2020).

Key:
Phakopsora pachyrhizi = test: Fungicidal activity, soybean leaf disc preventative (Asian soybean rust); format: in vivo; conditions: foliar, 200 ppm in the applied formulation, soybean leaf disks, compared to untreated control, 12 to 14 days after application, read-out: disease control
Summary of the method: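 Read-out is percent disease control relative to untreated check discs, assessed once untreated discs show adequate disease, 12 to 14 days after application. Compounds, tested at 200 ppm in the applied formulation, are sprayed onto soybean leaf discs one day before inoculation with a spore suspension.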

[1] = tested on: Glomerella lacenarium (Colletotrichum lacenarium); test: Fungicidal activity, liquid culture, cucumber preventative (anthracnose); format: cell-based; conditions: 20 ppm in the applied formulation, liquid culture in PDB, inhibition of growth measured photometrically 3 to 4 days after application, compared to untreated control, read-out: disease control
Summary of the method: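 Photometric read-out of fungal growth 3 to 4 days after application, expressed as percent control relative to untreated wells. Plates held at 24 °C. Compound placed in DMSO before adding PDB broth seeded with conidia from cryogenic storage.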

[2] = tested on: Puccinia recondita f. Sp. Tritici; test: Fungicidal activity, wheat leaf disc curative (brown rust); format: in vivo; conditions: foliar, 200 ppm in the applied formulation, wheat leaf segments cv. Kanzler, curative (applied 1 day after inoculation), compared to untreated control, 6 to 8 days after application, read-out: disease control
Summary of the method: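 Compound applied 1 day after spore inoculation of wheat cv. Kanzler leaf segments on agar (dark, 19 °C, 75% RH before treatment). After further incubation under 12 h light/12 h dark at 19 °C and 75% RH, disease control relative to untreated segments rated 6–8 days post-application.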

[3] = tested on: Puccinia recondita f. Sp. Tritici; test: Fungicidal activity, wheat leaf disc preventative (brown rust); format: in vivo; conditions: foliar, 200 ppm in the applied formulation, wheat leaf segments cv. Kanzler, compared to untreated control, 7 to 9 days after application, read-out: disease control
Summary of the method: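 Preventative leaf-segment test: spray application of diluted formulated compound on wheat cv. Kanzler, spore inoculation after 1 day. Percent control relative to untreated segments rated 7 to 9 days post-application, with incubation at 19° C, 75% relative humidity, 12 h photoperiod.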

Structure (SMILES)	pest or weed control at 200 ppm (Phakopsora pachyrhizi)	inhibition of growth at 20 ppm [1]	pest or weed control at 200 ppm [2]	pest or weed control at 200 ppm [3]	melting point
CNC(=O)N(Cc1ccc(-c2noc(C(F)(F)F)n2)s1)OC [Compound 1.2, 1-methoxy-3-methyl-1-[[5-[5-(trifluoromethyl)-1,2,4-oxadiazol-3-yl]-2-thienyl]methyl]urea]	≥ 80%	≥ 80%	≥ 80%	≥ 80%	93.2 to 95.7 °C
CON(Cc1ccc(-c2noc(C(F)(F)F)n2)s1)C(=O)NC1CC1 [Compound 1.27, 3-cyclopropyl-1-methoxy-1-[[5-[5-(trifluoromethyl)-1,2,4-oxadiazol-3-yl]-2-thienyl]methyl]urea]	≥ 80%	≥ 80%	≥ 80%	≥ 80%	82.2 to 83.8 °C
CC(C)N(Cc1ccc(-c2noc(C(F)(F)F)n2)s1)C(=O)C1CC1 [Compound 5.5, N-isopropyl-N-[[5-[5-(trifluoromethyl)-1,2,4-oxadiazol-3-yl]-2-thienyl]methyl]cyclopropanecarboxamide]	≥ 80%	≥ 80%	≥ 80%	≥ 80%	–
CN(Cc1ccc(-c2noc(C(F)(F)F)n2)s1)C(=O)NC1CC1 [Compound 5.6, 3-cyclopropyl-1-methyl-1-[[5-[5-(trifluoromethyl)-1,2,4-oxadiazol-3-yl]-2-thienyl]methyl]urea]	≥ 80%	≥ 80%	≥ 80%	≥ 80%	–
CCN(Cc1ccc(-c2noc(C(F)(F)F)n2)s1)C(=O)C1(C)COC1 [Compound 5.14, N-ethyl-3-methyl-N-[[5-(5-(trifluoromethyl)-1,2,4-oxadiazol-3-yl]-2-thienyl]methyl]oxetane-3-carboxamide]	≥ 80%	≥ 80%	≥ 80%	≥ 80%	–
CCN(Cc1ccc(-c2noc(C(F)(F)F)n2)s1)C(=O)C1CC1C (centres unmarked) [Compound 5.16, N-ethyl-2-methyl-N-[[5-[5-(trifluoromethyl)-1,2,4-oxadiazol-3-yl]-2-thienyl]methyl]cyclopropanecarboxamide]	≥ 80%	≥ 80%	≥ 80%	≥ 80%	–
CN(Cc1ccc(-c2noc(C(F)(F)F)n2)s1)C(=O)CC1CC1 [Compound 5.18, 2-cyclopropyl-N-methyl-N-[[5-[5-(trifluoromethyl)-1,2,4-oxadiazol-3-yl]-2-thienyl]methyl]acetamide]	≥ 80%	≥ 80%	≥ 80%	≥ 80%	–
CN(Cc1ccc(-c2noc(C(F)(F)F)n2)s1)C(=O)C1CCC1 [Compound 5.20, N-methyl-N-[[5-[5-(trifluoromethyl)-1,2,4-oxadiazol-3-yl]-2-thienyl]methyl]cyclobutanecarboxamide]	≥ 80%	≥ 80%	≥ 80%	≥ 80%	–
CN(Cc1ccc(-c2noc(C(F)(F)F)n2)s1)C(=O)C1(C)CC1 [Compound 5.21, N,1-dimethyl-N-[[5-[5-(trifluoromethyl)-1,2,4-oxadiazol-3-yl]-2-thienyl]methyl]cyclopropanecarboxamide]	≥ 80%	≥ 80%	≥ 80%	≥ 80%	–
CN(Cc1ccc(-c2noc(C(F)(F)F)n2)s1)C(=O)C1CC1(F)F (centres unmarked) [Compound 5.24, 2,2-difluoro-N-methyl-N-[[5-[5-(trifluoromethyl)-1,2,4-oxadiazol-3-yl]-2-thienyl]methyl]cyclopropanecarboxamide]	≥ 80%	≥ 80%	≥ 80%	≥ 80%	–
CC1CC1C(=O)N(C)Cc1ccc(-c2noc(C(F)(F)F)n2)s1 (centres unmarked) [Compound 5.25, N,2-dimethyl-N-[[5-[5-(trifluoromethyl)-1,2,4-oxadiazol-3-yl]-2-thienyl]methyl]cyclopropanecarboxamide]	≥ 80%	≥ 80%	≥ 80%	≥ 80%	–
O=C(NC1CC1)N(Cc1ccc(-c2noc(C(F)(F)F)n2)s1)C1CC1 [Compound 5.62, 1,3-dicyclopropyl-1-[[5-[5-(trifluoromethyl)-1,2,4-oxadiazol-3-yl]-2-thienyl]methyl]urea]	≥ 80%	≥ 80%	≥ 80%	≥ 80%	–
O=C(NC1CC1)N(Cc1ccc(-c2noc(C(F)(F)F)n2)s1)OCC(F)F [Compound 5.65, 3-cyclopropyl-1-(2,2-difluoroethoxy)-1-[[5-[5-(trifluoromethyl)-1,2,4-oxadiazol-3-yl]-2-thienyl]methyl]urea]	≥ 80%	≥ 80%	≥ 80%	≥ 80%	–
CCN(Cc1ccc(-c2noc(C(F)(F)F)n2)s1)C(=O)C(N)=O [Compound 6.5, N′-ethyl-N′-[[5-[5-(trifluoromethyl)-1,2,4-oxadiazol-3-yl]-2-thienyl]methyl]oxamide]	≥ 80%	≥ 80%	≥ 80%	≥ 80%	–
CN(Cc1ccc(-c2noc(C(F)(F)F)n2)s1)C(=O)C(N)=O [Compound 6.7, N′-methyl-N′-[[5-[5-(trifluoromethyl)-1,2,4-oxadiazol-3-yl]-2-thienyl]methyl]oxamide]	≥ 80%	≥ 80%	≥ 80%	≥ 80%	–
NC(=O)C(=O)N(Cc1ccc(-c2noc(C(F)(F)F)n2)s1)C1CC1 [Compound 6.10, N′-cyclopropyl-N′-[[5-[5-(trifluoromethyl)-1,2,4-oxadiazol-3-yl]-2-thienyl]methyl]oxamide]	≥ 80%	≥ 80%	≥ 80%	≥ 80%	–
CCN(Cc1ccc(-c2noc(C(F)(F)F)n2)s1)S(C)(=O)=O [Compound 6.16, N-ethyl-N-[[5-[5-(trifluoromethyl)-1,2,4-oxadiazol-3-yl]-2-thienyl]methyl]methanesulfonamide]	≥ 80%	≥ 80%	≥ 80%	≥ 80%	–
COCCS(=O)(=O)N(C)Cc1ccc(-c2noc(C(F)(F)F)n2)s1 [Compound 6.21, 2-methoxy-N-methyl-N-[[5-[5-(trifluoromethyl)-1,2,4-oxadiazol-3-yl]-2-thienyl]methyl]ethanesulfonamide]	≥ 80%	≥ 80%	≥ 80%	≥ 80%	–
